Results taken from patent US20250320194A1, “PHARMACEUTICALLY ACCEPTABLE SALT AND CRYSTAL FORM OF FUSED PYRIDINE RING DERIVATIVE AND PREPARATION METHOD THEREFOR” (Jiangsu Hengrui Pharmaceuticals Co., Ltd., priority 2021, published 2025).

What was measured:
[1] = Stability under influencing factors (high temperature, high humidity, open, 30 days); details: for physical and chemical stability (conclusion): 75% RH and 92.5% RH
[2] = Long-term/accelerated stability; details: for physical and chemical stability (conclusion): long-term accelerated stability conditions for 6 months
[3] = Hygroscopicity of salt crystal forms (DVS, 25° C.); assay type: physicochemical; details: for Hygroscopicity 0.0% RH-95.0% RH / Hygroscopicity 20.0% RH-80.0% RH: DVS, 25° C.; for Crystal form: after DVS
Method: The test adopts SMS DVS Advantage, at 25° C., with a humidity range of 0 to 95% and a step of 10%. The judgment standard is that the dM/dT of each gradient mass change is less than 0.002%, TMAX is 360 minutes, and the cycle is two times. • 5. Cation chromatography • Instrument model: DIONEX AQUION ion chromatograph, USA • Detection method: conductivity; separation column: IonPac CS16-CG16 • Eluent: MSA 20Mm • Flow rate: 1.0 ml/min • 6. Anion chromatography • Instrument model: DIONEX INTEGRION HPIC ion chromatograph, USA • Detection method: conductivity; separation column: DionexIonPac™-AS11-HC • Eluent: EGC-500-KOH • Flow rate: 1.5 ml/min
Using Surface Measurement Systems advantage, at 25° C., the humidity starts from 50%, the humidity range is 0% to 95%, the step is 10%. The judgment standard was that the dM/dT of each gradient mass change is less than 0.002%, TMAX360 min, and the cycle was two times. The hygroscopicity of different salt crystal forms of the compound of formula I was investigated respectively.

CC(C)(C#Cc1nc(C(Cc2cc(F)cc(F)c2)NC(=O)Cn2nc(C(F)(F)F)c3c2C(F)(F)C2CC32)c(-c2ccc(Cl)c3c([N-]S(C)(=O)=O)nn(CC(F)(F)F)c23)c2c1CCC2)S(C)(=O)=O.[Na+] (stereo not shown) [Crystal form II of the sodium salt]
physical and chemical stability (conclusion) ([1]; 40° C., 60° C.): good physical and chemical stability
Color, properties ([1]; 40° C., 5 days): White solid
Crystal form ([1]; 40° C., 5 days): Unchanged
Purity % ([1]; 40° C., 5 days, listed as II-crystal form of the sodium salt): 97.88%
Color, properties ([1]; 40° C., 10 days): White solid
Crystal form ([1]; 40° C., 10 days): Unchanged
Purity % ([1]; 40° C., 10 days, listed as II-crystal form of the sodium salt): 97.83%
Color, properties ([1]; 40° C., 30 days): White solid
Crystal form ([1]; 40° C., 30 days): Unchanged
Purity % ([1]; 40° C., 30 days, listed as II-crystal form of the sodium salt): 97.88%
Color, properties ([1]; 60° C., 5 days): White solid
Crystal form ([1]; 60° C., 5 days): Unchanged
Purity % ([1]; 60° C., 5 days, listed as II-crystal form of the sodium salt): 97.86%
Color, properties ([1]; 60° C., 10 days): White solid
Crystal form ([1]; 60° C., 10 days): Unchanged
Purity % ([1]; 60° C., 10 days, listed as II-crystal form of the sodium salt): 97.88%
Color, properties ([1]; 60° C., 30 days): White solid
Crystal form ([1]; 60° C., 30 days): Unchanged
Purity % ([1]; 60° C., 30 days, listed as II-crystal form of the sodium salt): 97.90%
Color, properties ([1]; 75% RH, 5 days): White solid
Crystal form ([1]; 75% RH, 5 days): Unchanged
Purity % ([1]; 75% RH, 5 days, listed as II-crystal form of the sodium salt): 97.84%
Color, properties ([1]; 75% RH, 10 days): White solid
Crystal form ([1]; 75% RH, 10 days): Unchanged
Purity % ([1]; 75% RH, 10 days, listed as II-crystal form of the sodium salt): 97.84%
Color, properties ([1]; 75% RH, 30 days): White solid
Crystal form ([1]; 75% RH, 30 days): Unchanged
Purity % ([1]; 75% RH, 30 days, listed as II-crystal form of the sodium salt): 97.82%
Color, properties ([1]; 92.5% RH, 5 days): White solid
Crystal form ([1]; 92.5% RH, 5 days): Unchanged
Purity % ([1]; 92.5% RH, 5 days, listed as II-crystal form of the sodium salt): 97.84%
Color, properties ([1]; 92.5% RH, 10 days): White solid
Crystal form ([1]; 92.5% RH, 10 days): Unchanged
Purity % ([1]; 92.5% RH, 10 days, listed as II-crystal form of the sodium salt): 97.85%
Color, properties ([1]; 92.5% RH, 30 days): White solid
Crystal form ([1]; 92.5% RH, 30 days): Unchanged
Purity % ([1]; 92.5% RH, 30 days, listed as II-crystal form of the sodium salt): 97.82%
Color, properties ([1]; Start, 0 days): White solid
Purity % ([1]; Start, 0 days): 97.76%
Purity % ([2]; 4° C., 1 month): 97.83%
Purity % ([2]; 4° C., 2 months): 97.83%
Purity % ([2]; 4° C., 3 months): 97.79%
Purity % ([2]; 4° C., 6 months): 97.77%
Purity % ([2]; 4° C., Start): 97.76%
Purity % ([2]; 25° C., 60% RH, 1 month): 97.82%
Purity % ([2]; 25° C., 60% RH, 2 months): 97.82%
Purity % ([2]; 25° C., 60% RH, 3 months): 97.86%
Purity % ([2]; 25° C., 60% RH, 6 months): 97.79%
Purity % ([2]; 25° C., 60% RH, Start): 97.76%
Purity % ([2]; 40° C., 75% RH, 1 month): 97.81%
Purity % ([2]; 40° C., 75% RH, 2 months): 97.80%
Purity % ([2]; 40° C., 75% RH, 3 months): 97.83%
Purity % ([2]; 40° C., 75% RH, 6 months): 97.76%
Purity % ([2]; 40° C., 75% RH, Start): 97.76%
physical and chemical stability (conclusion) [2]: good physical and chemical stability
Hygroscopicity 0.0% RH-95.0% RH [3]: 34.16%
Hygroscopicity 20.0% RH-80.0% RH [3]: 11.61%
Crystal form [3]: Unchanged

CC(C)(C#Cc1nc(C(Cc2cc(F)cc(F)c2)NC(=O)Cn2nc(C(F)(F)F)c3c2C(F)(F)C2CC32)c(-c2ccc(Cl)c3c([N-]S(C)(=O)=O)nn(CC(F)(F)F)c23)c2c1CCC2)S(C)(=O)=O.[Na+] (stereo not shown) [Crystal form III of the sodium salt]
physical and chemical stability (conclusion) ([1]; 40° C., 60° C.): good physical and chemical stability
Color, properties ([1]; 40° C., 5 days): White solid
Crystal form ([1]; 40° C., 5 days): Unchanged
Purity % ([1]; 40° C., 5 days): 97.98%
Color, properties ([1]; 40° C., 10 days): White solid
Crystal form ([1]; 40° C., 10 days): Unchanged
Purity % ([1]; 40° C., 10 days): 98.10%
Color, properties ([1]; 40° C., 30 days): White solid
Crystal form ([1]; 40° C., 30 days): Unchanged
Purity % ([1]; 40° C., 30 days): 98.06%
Color, properties ([1]; 60° C., 5 days): White solid
Crystal form ([1]; 60° C., 5 days): Unchanged
Purity % ([1]; 60° C., 5 days): 98.05%
Color, properties ([1]; 60° C., 10 days): White solid
Crystal form ([1]; 60° C., 10 days): Unchanged
Purity % ([1]; 60° C., 10 days): 98.08%
Color, properties ([1]; 60° C., 30 days): White solid
Crystal form ([1]; 60° C., 30 days): Unchanged
Purity % ([1]; 60° C., 30 days): 97.99%
Color, properties ([1]; 75% RH, 5 days): White solid
Crystal form ([1]; 75% RH, 5 days): Unchanged
Purity % ([1]; 75% RH, 5 days): 98.08%
Color, properties ([1]; 75% RH, 10 days): White solid
Crystal form ([1]; 75% RH, 10 days): Unchanged
Purity % ([1]; 75% RH, 10 days): 98.10%
Color, properties ([1]; 75% RH, 30 days): White solid
Crystal form ([1]; 75% RH, 30 days): Unchanged
Purity % ([1]; 75% RH, 30 days): 98.00%
Color, properties ([1]; 92.5% RH, 5 days): White solid
Crystal form ([1]; 92.5% RH, 5 days): Unchanged
Purity % ([1]; 92.5% RH, 5 days): 97.94%
Color, properties ([1]; 92.5% RH, 10 days): White solid
Crystal form ([1]; 92.5% RH, 10 days): Unchanged
Purity % ([1]; 92.5% RH, 10 days): 97.94%
Color, properties ([1]; 92.5% RH, 30 days): White solid
Crystal form ([1]; 92.5% RH, 30 days): Unchanged
Purity % ([1]; 92.5% RH, 30 days): 97.89%
Color, properties ([1]; Start, 0 days): White solid
Purity % ([1]; Start, 0 days): 98.23%
Purity % ([2]; 4° C., 1 month): 98.25%
Purity % ([2]; 4° C., 2 months): 98.26%
Purity % ([2]; 4° C., 3 months): 98.24%
Purity % ([2]; 4° C., 6 months): 98.28%
Purity % ([2]; 4° C., Start): 98.32%
physical and chemical stability (conclusion) [2]: good physical and chemical stability
Hygroscopicity 0.0% RH-95.0% RH [3]: 2.04%
Hygroscopicity 20.0% RH-80.0% RH [3]: 0.73%
Crystal form [3]: Unchanged
